Test results from article PMC5513037, “Examining the influence of specificity ligands and ATP-competitive ligands on the overall effectiveness of bivalent kinase inhibitors” (Proteome Science, 2017).
pIC50: −log10 of the molar value.

Assays:
Test in all cases: KAM-matrix competition in K562 lysate;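 as to 0.001 uM KAM: median log10 fold change of treatment over DMSO control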;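 as to 0.01 uM KAM: median log10 fold change of treatment over DMSO control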;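 as to 0.1 uM KAM: median log10 fold change of treatment over DMSO control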;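 as to 1 uM KAM: median log10 fold change of treatment over DMSO control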;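 as to 10 uM KAM: median log10 fold change of treatment over DMSO control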
Type in all cases: binding
MAP3K5 = biological target: T1, MAP3K5 (Homo sapiens, UniProt Q99683)
T1 construct: endogenous in cells; host or cells: K562 cell lysate
T1 sequence (Q99683 1-1374): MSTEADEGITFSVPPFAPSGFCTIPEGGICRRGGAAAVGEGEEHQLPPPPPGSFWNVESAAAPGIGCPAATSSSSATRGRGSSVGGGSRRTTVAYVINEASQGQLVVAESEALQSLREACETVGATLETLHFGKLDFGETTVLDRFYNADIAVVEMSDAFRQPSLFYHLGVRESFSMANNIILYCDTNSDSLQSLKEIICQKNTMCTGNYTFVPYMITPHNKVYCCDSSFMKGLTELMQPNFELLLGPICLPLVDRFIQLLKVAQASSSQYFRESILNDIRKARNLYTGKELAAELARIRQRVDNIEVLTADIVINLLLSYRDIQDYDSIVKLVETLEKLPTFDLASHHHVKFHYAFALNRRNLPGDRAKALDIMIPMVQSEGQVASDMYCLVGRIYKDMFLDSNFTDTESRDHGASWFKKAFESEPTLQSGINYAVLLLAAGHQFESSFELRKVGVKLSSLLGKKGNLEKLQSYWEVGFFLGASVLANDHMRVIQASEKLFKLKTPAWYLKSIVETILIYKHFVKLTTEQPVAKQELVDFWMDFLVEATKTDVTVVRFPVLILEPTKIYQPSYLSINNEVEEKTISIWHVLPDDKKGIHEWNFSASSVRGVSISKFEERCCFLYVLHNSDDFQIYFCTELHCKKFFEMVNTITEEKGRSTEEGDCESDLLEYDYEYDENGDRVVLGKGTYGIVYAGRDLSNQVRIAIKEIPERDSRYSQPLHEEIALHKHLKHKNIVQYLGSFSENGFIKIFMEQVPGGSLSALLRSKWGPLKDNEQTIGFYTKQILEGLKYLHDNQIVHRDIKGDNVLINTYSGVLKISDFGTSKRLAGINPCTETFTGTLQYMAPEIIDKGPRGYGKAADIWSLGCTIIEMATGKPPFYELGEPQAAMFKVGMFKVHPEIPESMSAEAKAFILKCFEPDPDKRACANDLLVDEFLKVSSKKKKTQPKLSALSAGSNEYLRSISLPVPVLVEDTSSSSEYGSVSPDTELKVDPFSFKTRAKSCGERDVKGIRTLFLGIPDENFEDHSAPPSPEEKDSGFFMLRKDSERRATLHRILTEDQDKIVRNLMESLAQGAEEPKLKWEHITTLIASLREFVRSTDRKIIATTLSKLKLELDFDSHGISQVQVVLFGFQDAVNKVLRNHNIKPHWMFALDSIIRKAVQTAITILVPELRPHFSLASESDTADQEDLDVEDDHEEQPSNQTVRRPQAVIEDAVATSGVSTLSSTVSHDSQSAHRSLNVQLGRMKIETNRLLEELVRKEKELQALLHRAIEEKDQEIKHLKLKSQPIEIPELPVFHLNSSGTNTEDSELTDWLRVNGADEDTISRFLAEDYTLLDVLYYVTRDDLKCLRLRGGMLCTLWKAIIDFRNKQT
Procedure: (§1) Supplement 12953_2017_125_MOESM1_ESM.zip/MS_Supp Info.xlsx, sheet "KAM" | column: 10 uM KAM; 1 uM KAM; 0.1 uM KAM; 0.01 uM KAM; 0.001 uM KAM; RB50

PRKACA = biological target: T2, PRKACA (Homo sapiens, UniProt P17612);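 as to 0.001 uM KAM: median log10 fold change of treatment over DMSO control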;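 as to 0.01 uM KAM: median log10 fold change of treatment over DMSO control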;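 as to 0.1 uM KAM: median log10 fold change of treatment over DMSO control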;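 as to 1 uM KAM: median log10 fold change of treatment over DMSO control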;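 as to 10 uM KAM: median log10 fold change of treatment over DMSO control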
T2 construct: endogenous in cells; host or cells: K562 lysate
Procedure: as §1

ACVR1B = biological target: T3, ACVR1B (Homo sapiens, UniProt P36896)
T3 construct: endogenous in cells; host or cells: K562
T3 sequence (P36896 24-505): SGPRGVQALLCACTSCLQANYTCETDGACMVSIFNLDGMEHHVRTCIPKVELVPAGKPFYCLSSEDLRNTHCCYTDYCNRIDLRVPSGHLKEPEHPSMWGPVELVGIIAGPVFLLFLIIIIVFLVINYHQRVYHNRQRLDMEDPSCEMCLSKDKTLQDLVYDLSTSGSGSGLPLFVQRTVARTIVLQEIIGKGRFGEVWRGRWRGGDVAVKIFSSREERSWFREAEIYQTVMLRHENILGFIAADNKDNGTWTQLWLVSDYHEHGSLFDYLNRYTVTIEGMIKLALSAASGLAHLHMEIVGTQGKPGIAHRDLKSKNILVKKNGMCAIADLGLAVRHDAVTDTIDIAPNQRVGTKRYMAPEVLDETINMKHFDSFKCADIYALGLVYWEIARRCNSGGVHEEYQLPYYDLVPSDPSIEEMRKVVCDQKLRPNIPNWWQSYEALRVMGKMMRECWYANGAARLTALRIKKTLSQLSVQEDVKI
Procedure: as §1

MTOR = biological target: T4, MTOR (Homo sapiens, UniProt P42345);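 as to 0.001 uM KAM: median log10 fold change of treatment over DMSO control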;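 as to 0.01 uM KAM: median log10 fold change of treatment over DMSO control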;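 as to 0.1 uM KAM: median log10 fold change of treatment over DMSO control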;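 as to 1 uM KAM: median log10 fold change of treatment over DMSO control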;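 as to 10 uM KAM: median log10 fold change of treatment over DMSO control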
T4 construct: endogenous in cells; host or cells: K562
Procedure: as §1

ACVR2B = biological target: T5, ACVR2B (Homo sapiens, UniProt Q13705);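 as to 0.001 uM KAM: median log10 fold change of treatment over DMSO control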;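 as to 0.01 uM KAM: median log10 fold change of treatment over DMSO control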;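 as to 0.1 uM KAM: median log10 fold change of treatment over DMSO control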;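 as to 1 uM KAM: median log10 fold change of treatment over DMSO control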;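 as to 10 uM KAM: median log10 fold change of treatment over DMSO control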
T5 construct: endogenous in cells; host or cells: K562 cell lysate
Procedure: as §1

PRPF4B = biological target: T6, PRPF4B (Homo sapiens, UniProt Q13523)
T6 construct: endogenous in cells; host or cells: K562
Procedure: as §1

SIK2 = biological target: T7, SIK2 (Homo sapiens, UniProt Q9H0K1)
T7 construct: endogenous in cells; host or cells: K562 cells (lysate)
Procedure: as §1

[1] = read-out: RB50 (the source's name)
[2] = KAM 0.001-10 uM, read-out: RB50 (the source's name)

T7 sequence (Q9H0K1 whole entry): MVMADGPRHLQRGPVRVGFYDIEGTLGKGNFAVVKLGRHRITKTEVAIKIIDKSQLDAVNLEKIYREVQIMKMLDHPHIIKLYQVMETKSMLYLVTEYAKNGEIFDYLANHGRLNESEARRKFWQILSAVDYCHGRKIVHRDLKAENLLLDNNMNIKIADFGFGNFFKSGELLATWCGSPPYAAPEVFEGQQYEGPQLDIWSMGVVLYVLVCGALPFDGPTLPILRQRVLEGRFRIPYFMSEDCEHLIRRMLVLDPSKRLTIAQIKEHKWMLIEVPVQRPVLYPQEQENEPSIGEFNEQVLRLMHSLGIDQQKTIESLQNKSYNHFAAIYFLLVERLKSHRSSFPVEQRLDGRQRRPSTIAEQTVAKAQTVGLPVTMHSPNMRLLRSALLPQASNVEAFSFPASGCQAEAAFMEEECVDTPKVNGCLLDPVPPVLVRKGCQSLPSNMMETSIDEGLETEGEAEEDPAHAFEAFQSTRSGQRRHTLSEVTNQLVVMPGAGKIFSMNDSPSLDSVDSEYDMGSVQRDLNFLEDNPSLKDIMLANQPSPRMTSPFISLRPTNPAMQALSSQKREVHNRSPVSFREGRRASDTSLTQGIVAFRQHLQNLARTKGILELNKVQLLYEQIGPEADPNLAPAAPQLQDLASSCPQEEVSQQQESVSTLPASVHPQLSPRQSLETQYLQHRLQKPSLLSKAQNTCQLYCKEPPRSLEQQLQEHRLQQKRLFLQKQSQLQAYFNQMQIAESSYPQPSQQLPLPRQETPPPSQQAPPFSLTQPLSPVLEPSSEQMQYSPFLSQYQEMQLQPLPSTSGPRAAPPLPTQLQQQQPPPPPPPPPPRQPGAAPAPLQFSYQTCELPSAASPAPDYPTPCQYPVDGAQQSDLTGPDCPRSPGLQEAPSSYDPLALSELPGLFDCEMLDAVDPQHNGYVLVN
T5 sequence (Q13705 19-512): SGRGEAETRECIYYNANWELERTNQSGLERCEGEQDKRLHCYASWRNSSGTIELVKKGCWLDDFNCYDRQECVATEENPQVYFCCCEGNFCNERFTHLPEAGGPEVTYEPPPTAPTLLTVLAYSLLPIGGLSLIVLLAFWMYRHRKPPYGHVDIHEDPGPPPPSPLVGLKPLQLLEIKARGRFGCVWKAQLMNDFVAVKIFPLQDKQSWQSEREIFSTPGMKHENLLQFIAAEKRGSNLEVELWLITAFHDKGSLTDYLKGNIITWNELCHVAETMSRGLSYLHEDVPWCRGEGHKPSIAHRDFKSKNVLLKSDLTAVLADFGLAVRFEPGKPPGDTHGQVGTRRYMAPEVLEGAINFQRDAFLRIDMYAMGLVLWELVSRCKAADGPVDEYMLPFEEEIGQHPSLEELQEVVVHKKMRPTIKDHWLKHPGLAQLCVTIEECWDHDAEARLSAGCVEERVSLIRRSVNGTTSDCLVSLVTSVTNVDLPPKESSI
T6 sequence (Q13523 whole entry): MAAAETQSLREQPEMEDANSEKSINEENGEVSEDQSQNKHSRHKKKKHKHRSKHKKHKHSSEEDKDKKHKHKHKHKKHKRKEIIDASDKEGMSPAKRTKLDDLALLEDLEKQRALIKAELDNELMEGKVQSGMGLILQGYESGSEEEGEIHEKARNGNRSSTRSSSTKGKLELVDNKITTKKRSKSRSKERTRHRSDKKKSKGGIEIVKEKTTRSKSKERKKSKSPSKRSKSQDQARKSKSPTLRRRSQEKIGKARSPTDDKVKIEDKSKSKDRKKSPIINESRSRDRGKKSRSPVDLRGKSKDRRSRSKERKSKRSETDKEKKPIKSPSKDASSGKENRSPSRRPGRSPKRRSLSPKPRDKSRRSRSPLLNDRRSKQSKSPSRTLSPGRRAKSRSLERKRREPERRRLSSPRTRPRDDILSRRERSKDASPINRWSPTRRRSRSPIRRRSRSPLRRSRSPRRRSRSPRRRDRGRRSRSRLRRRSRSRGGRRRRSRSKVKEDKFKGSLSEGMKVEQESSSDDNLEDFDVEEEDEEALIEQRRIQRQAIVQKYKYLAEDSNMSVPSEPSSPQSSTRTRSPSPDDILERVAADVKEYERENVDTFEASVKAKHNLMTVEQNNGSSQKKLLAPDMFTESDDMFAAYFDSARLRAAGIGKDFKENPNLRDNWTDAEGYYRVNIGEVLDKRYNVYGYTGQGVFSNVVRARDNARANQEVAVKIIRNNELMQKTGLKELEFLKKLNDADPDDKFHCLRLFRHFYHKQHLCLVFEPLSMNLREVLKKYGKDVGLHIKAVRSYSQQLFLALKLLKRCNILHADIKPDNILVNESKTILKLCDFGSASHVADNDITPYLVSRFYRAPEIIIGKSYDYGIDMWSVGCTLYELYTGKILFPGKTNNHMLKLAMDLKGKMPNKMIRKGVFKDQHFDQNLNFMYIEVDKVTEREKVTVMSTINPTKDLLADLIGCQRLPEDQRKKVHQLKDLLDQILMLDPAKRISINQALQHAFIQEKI

Compound: N#CCc1ccc(Nc2nc(NCCCN)cc(Nc3cc(C4CC4)[nH]n3)n2)cc1 [KAM]
- median Log10 fold change (MAP3K5; 0.001 uM KAM): -0.02718
- median Log10 fold change (MAP3K5; 0.01 uM KAM): -0.01436
- median Log10 fold change (MAP3K5; 0.1 uM KAM): -0.08414
- median Log10 fold change (MAP3K5; 1 uM KAM): -0.1836
- median Log10 fold change (MAP3K5; 10 uM KAM): -0.3705
- pIC50 (MAP3K5; [1]): 5.38
- pIC50 (PRKACA; [2]): < 5.00
- 0.001 uM KAM (PRKACA; relative to 0 uM KAM = 0): 0.01517
- 0.01 uM KAM (PRKACA; relative to 0 uM KAM = 0): -0.007672
- 0.1 uM KAM (PRKACA; relative to 0 uM KAM = 0): 0.08573
- 1 uM KAM (PRKACA; relative to 0 uM KAM = 0): 0.0122
- 10 uM KAM (PRKACA; relative to 0 uM KAM = 0): 0.04616
- median Log10 fold change (ACVR1B; 0.001 uM KAM): -0.01715
- median Log10 fold change (ACVR1B; 0.01 uM KAM): -0.04575
- median Log10 fold change (ACVR1B; 0.1 uM KAM): -0.2439
- median Log10 fold change (ACVR1B; 1 uM KAM): -0.5931
- median Log10 fold change (ACVR1B; 10 uM KAM): -0.7717
- pIC50 (ACVR1B; [1]): 6.77
- pIC50 (MTOR; [2]): < 5.00
- 0.001 uM KAM (MTOR; relative to 0 uM KAM = 0): -0.05296
- 0.01 uM KAM (MTOR; relative to 0 uM KAM = 0): -0.02855
- 0.1 uM KAM (MTOR; relative to 0 uM KAM = 0): -0.0574
- 1 uM KAM (MTOR; relative to 0 uM KAM = 0): -0.03577
- 10 uM KAM (MTOR; relative to 0 uM KAM = 0): -0.01614
- pIC50 (ACVR2B; [2]): < 5.00
- 0.001 uM KAM (ACVR2B; relative to 0 uM KAM = 0): 0.02766
- 0.01 uM KAM (ACVR2B; relative to 0 uM KAM = 0): -0.009918
- 0.1 uM KAM (ACVR2B; relative to 0 uM KAM = 0): -0.09138
- 1 uM KAM (ACVR2B; relative to 0 uM KAM = 0): -0.2794
- 10 uM KAM (ACVR2B; relative to 0 uM KAM = 0): -0.2958
- median Log10 fold change (PRPF4B; 0.001 uM KAM): -0.03755
- median Log10 fold change (PRPF4B; 0.01 uM KAM): -0.07792
- median Log10 fold change (PRPF4B; 0.1 uM KAM): -0.1894
- median Log10 fold change (PRPF4B; 1 uM KAM): -0.2633
- median Log10 fold change (PRPF4B; 10 uM KAM): -0.4136
- pIC50 (PRPF4B; [1]): 5.85
- median Log10 fold change (SIK2; 0.001 uM KAM): -0.01021
- median Log10 fold change (SIK2; 0.01 uM KAM): -0.008818
- median Log10 fold change (SIK2; 0.1 uM KAM): -0.08618
- median Log10 fold change (SIK2; 1 uM KAM): -0.3925
- median Log10 fold change (SIK2; 10 uM KAM): -0.5017
- pIC50 (SIK2; [1]): 6.10
